Data: publication PMC11378298 (ACS Chemical Neuroscience, 2024)

Experiments:
[1] = target: T1, GSK-3β (Homo sapiens, UniProt P49841); test: biochemical; settings: read-out: increase of the melting point of the protein
Protocol: (§1) We evaluated the pharmacological properties of the compounds in vitro against GSK-3β using the GSK-3β Kinase Enzyme System followed by ADP-Glo bioluminescent assay.[50] The principle of the assay is to determine the amount of ADP formed from ATP in the kinase reaction. […] Additionally, compounds 11 and 36 in complex with GSK-3β were analyzed by the proteins’ melting temperature determination using Thermal Shift Assay (see Figure S1 in the SI).
Target sequence in this assay (P49841 26-383): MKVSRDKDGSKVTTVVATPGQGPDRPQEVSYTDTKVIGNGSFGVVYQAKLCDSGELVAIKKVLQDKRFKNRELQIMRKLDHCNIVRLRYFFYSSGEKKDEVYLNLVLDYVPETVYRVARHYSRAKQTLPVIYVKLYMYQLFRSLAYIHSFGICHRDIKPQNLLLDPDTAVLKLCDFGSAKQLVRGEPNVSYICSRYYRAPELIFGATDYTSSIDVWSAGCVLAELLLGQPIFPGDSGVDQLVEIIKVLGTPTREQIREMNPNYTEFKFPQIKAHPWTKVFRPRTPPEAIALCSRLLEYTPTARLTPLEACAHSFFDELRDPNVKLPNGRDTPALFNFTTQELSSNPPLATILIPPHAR

[2] = Cytotoxicity in HT-22 cells (PrestoBlue); settings: mouse, HT-22 hippocampal neuronal cells
Protocol: The compounds were tested at 5 concentrations (0.1, 1, 10, 50, and 100 μM).
Mouse Hippocampal Neuronal Cell Line (HT-22) was a generous gift from Dr Bartosz Pomierny of the Department of Biochemical Toxicology, Jagiellonian University Medical College, Krakow, Poland. Cells were cultured in Dulbecco’s modified Eagle’s Medium—high glucose (DMEM, Glutamax Thermo Fisher) supplemented with 10% heat-inactivated fetal bovine serum (Thermo Fisher), 100 IU/mL penicillin (Merck) and 100 μg/mL streptomycin (Merck). Cells were cultured in flasks (area 175 cm^2, Nunc), and incubated at 37 °C, 5% CO2. For the measurement of cell viability and neuroprotective effect against okadaic acid cells were placed in a 96-well culture plate (2 × 10^4 cells per well, Falcon). Before the tests, cells were grown for 24 h in the incubator (37 °C, 5% CO2).
Cell viability was evaluated using the PrestoBlue reagent (ThermoFisher), according to the manufacturer’s procedures.[87] Following 24 h of incubation with the tested molecule, PrestoBlue reagent was added to a microplate well in an amount equal to one-tenth of the remaining medium volume. The resulting mixture was incubated for 15 min at 37 °C, and the fluorescence intensity (EX 530 nm; EM 580 nm) was measured in the plate reader POLARstar Omega, (BMG Labtech).

[3] = target: T1, GSK-3β; test: biochemical
Protocol: as §1
Target sequence in this assay (P49841 whole entry): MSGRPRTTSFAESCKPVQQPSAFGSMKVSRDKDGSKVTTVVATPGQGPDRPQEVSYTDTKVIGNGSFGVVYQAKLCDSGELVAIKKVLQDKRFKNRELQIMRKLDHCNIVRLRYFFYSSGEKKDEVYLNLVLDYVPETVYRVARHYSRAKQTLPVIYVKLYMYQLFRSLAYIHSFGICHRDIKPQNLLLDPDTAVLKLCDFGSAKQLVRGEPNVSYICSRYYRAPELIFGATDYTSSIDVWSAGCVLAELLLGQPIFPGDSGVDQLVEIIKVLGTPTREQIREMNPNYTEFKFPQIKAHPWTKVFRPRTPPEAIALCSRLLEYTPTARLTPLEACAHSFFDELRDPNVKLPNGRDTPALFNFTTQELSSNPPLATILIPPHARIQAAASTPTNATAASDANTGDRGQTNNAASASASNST
The inhibitory activities of the tested compounds against the GSK-3β human recombinant kinase were measured using Promega’s GSK-3β Kinase Enzyme System (Promega; Madison, WI, USA), according to the provided manufacturer’s instruction, using the low-volume white polystyrene 384-well plates. The ADP-Glo Assay (Promega; Madison, WI, USA) was used for bioluminescent detection of the kinase activity. Tested compounds were prepared as 1 mM stock solutions in DMSO and diluted with the Kinase Assay Buffer before use (40 mM Tris, pH 7.5, enriched with 50 μM dithiothreitol; DTT) to obtain the desired compounds’ concentrations. The kinase enzyme, GSK-3β-substrate (derived from human muscle glycogen synthase 1), and ATP were also diluted in the assay buffer before use. At first, GSK-3β (10 ng per well) was incubated with the tested sample (10 μM in well) for 5 min. In the case of blank wells, the DMSO solution (1% in well) was used instead of the target samples’ solutions. After the incubation period, ATP (25 μM in well) and GSK-3β-substrate (0.2 μg/μL in well) were added to start the enzymatic reaction. The reaction mixture was kept at room temperature for 1 h, followed by the addition of the ADP-Glo reagent, to terminate the kinase reaction and deplete any remaining ATP. After the following 40 min—a second reagent (Kinase Detection Reagent) was applied to convert the obtained ADP to ATP and to generate light from the newly synthesized ATP using a luciferase/luciferin reaction. The mixture was kept for another 30 min at room temperature, then the luminescence was measured. Based on equation 100 – (S/B) × 100 (where S and B were the respective enzyme activities with and without the tested sample, respectively) the percent of inhibition of GSK-3β for each compound was calculated. […] Calculations were made using nonlinear regression (GraphPad Prism 9; GraphPad Software, San Diego, CA, USA) by plotting the residual enzyme activities against the applied inhibitor concentration. […] Each data point was collected in triplicate.

[4] = PAMPA; for permeability classification: versus caffeine
[5] = target: CYP3A4 (Homo sapiens, UniProt P08684); settings: for CYP3A4 activity at 0.1 µM / CYP3A4 activity at 1 µM / CYP3A4 activity at 10 µM / CYP3A4 activity at 25 µM: ± SD
From the text: (§2) Interactions with cytochrome enzymes are significant contributors to drug–drug interactions (DDIs), a crucial concern for patients who are on multiple medications. We determined the compounds’ influence on the most important CYP isoforms 3A4, 2D6, and 2C9, using the CYP450 inhibition luminescence assay from Promega (for details see Figures S23–S25 and Table S11 in the SI).
(§3) All protocols used for the evaluation of drug-like properties (ADME-To parameters) were described in our previous works.[58],[89] Precoated PAMPA Plate System Gentest was obtained from Corning, (Tewksbury, MA, USA). The metabolic stability assay was performed on human liver microsomes (HLMs, Sigma-Aldrich, St. Louis, MO, USA). The assays with microsomes were supported by MetaSite 6.0.1 software (Molecular Discovery Ltd. Hertfordshire, UK). To predict potential drug–drug interactions (DDIs) the influence on CYP3A4, CYP2D6, and CYP2C9 were carried with use of respective P450-Glo kit (Promega, Madison, WI, USA). The luminescence signal and absorbance were measured by using a microplate reader EnSpire PerkinElmer (Waltham, MA, USA). The LC/MS/MS analyses used in PAMPA and the assays with use of HLMs were obtained on Waters ACQUITY TQD system (Waters, Milford, CT, USA). […] Statistical significances and IC50 values were calculated by Graph Pad Prism 9 software. […]

[6] = target: CYP2C9 (Homo sapiens, UniProt P11712); settings: for CYP2C9 activity at 0.1 µM / CYP2C9 activity at 1 µM / CYP2C9 activity at 10 µM / CYP2C9 activity at 25 µM: ± SD
From the text: as §2, §3

[7] = target: CYP2D6 (Homo sapiens, UniProt P10635); settings: for CYP2D6 activity at 0.1 µM / CYP2D6 activity at 1 µM / CYP2D6 activity at 10 µM / CYP2D6 activity at 25 µM: ± SD
From the text: as §2, §3

Sequence of CYP2C9 (P11712 whole entry): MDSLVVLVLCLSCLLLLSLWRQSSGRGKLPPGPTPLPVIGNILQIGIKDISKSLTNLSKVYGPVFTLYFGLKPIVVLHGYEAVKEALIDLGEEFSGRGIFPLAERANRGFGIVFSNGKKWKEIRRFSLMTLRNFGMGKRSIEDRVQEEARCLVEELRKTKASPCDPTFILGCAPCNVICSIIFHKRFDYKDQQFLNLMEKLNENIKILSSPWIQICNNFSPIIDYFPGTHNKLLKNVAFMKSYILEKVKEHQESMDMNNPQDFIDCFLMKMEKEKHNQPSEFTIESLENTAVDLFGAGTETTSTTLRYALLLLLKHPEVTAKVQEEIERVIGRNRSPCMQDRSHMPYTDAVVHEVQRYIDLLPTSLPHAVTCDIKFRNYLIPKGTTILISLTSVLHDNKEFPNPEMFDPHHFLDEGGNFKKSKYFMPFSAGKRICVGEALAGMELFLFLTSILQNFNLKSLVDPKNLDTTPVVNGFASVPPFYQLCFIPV
Sequence of CYP3A4 (P08684 whole entry, canonical isoform): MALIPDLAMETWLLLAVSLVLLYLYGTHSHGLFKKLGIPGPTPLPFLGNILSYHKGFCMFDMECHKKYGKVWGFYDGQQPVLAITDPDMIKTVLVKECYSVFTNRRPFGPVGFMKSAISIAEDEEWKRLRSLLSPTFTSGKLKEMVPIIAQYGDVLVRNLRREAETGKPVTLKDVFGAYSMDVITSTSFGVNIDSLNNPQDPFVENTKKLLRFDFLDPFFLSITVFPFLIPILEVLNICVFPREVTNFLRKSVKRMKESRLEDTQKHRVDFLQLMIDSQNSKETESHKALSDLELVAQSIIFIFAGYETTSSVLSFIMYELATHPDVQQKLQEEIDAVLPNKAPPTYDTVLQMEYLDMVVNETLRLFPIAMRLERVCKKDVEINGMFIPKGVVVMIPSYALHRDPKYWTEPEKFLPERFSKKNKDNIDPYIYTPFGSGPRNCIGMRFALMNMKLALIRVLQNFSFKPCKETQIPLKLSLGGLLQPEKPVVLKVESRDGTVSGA
Sequence of CYP2D6 (P10635 whole entry): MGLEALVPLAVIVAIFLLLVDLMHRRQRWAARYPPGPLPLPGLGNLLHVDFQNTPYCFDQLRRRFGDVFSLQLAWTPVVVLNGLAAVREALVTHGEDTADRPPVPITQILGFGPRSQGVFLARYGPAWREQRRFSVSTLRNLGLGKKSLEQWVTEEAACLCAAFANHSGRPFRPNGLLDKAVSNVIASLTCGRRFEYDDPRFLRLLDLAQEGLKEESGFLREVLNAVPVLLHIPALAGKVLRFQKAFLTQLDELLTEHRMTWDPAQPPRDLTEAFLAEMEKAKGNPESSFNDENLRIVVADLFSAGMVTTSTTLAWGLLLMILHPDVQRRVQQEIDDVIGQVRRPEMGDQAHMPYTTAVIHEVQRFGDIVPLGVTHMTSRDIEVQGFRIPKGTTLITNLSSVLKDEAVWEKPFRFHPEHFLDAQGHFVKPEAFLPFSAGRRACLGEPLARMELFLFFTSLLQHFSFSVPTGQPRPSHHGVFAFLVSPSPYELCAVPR

Structure (SMILES) | ΔTm at 10 µM [1] | IC50 at 24 h [2] | IC50 [3] | permeability classification [4] | effect on CYP3A4 [5] | CYP3A4 activity at 0.1 µM [5] | CYP3A4 activity at 1 µM [5] | CYP3A4 activity at 10 µM [5] | CYP3A4 activity at 25 µM [5] | effect on CYP2C9 [6] | CYP2C9 activity at 0.1 µM [6] | CYP2C9 activity at 1 µM [6] | CYP2C9 activity at 10 µM [6] | CYP2C9 activity at 25 µM [6] | CYP2D6 activity at 0.1 µM [7] | CYP2D6 activity at 1 µM [7] | CYP2D6 activity at 10 µM [7] | CYP2D6 activity at 25 µM [7] | further results
O=C(Nc1cc(-c2ccc(-c3ncon3)s2)ccn1)C1CC1 [Compound 36, N-(4-(5-(1,2,4-Oxadiazol-3-yl)thiophen-2-yl)pyridin-2-yl)cyclopropanecarboxamide] | 14 °C | > 100000 nM | 70 ± 1 nM | well permeable | inhibitory effect | 104.8 ± 3.4 % of control | 103.6 ± 11.0 % of control | 84.6 ± 15.1 % of control | 65.3 ± 11.9 % of control | inhibitory effect | 109.5 ± 17.0 % of control | 114.1 ± 14.9 % of control | 95.2 ± 7.5 % of control | 59.8 ± 11.5 % of control | 98.4 ± 10.8 % of control | 98.1 ± 12.7 % of control | 100.4 ± 20.8 % of control | 102.8 ± 15.0 % of control | Pe ([4]; unit not given): 9.4; interactions with CYP isoform 2C9 ([6]; up to 25 μM): lacked significant interactions
NC(=O)N1CC=C(c2ccnc(NC(=O)C3CC3)c2)C1 [Compound 11, 3-(2-(Cyclopropanecarboxamido)pyridin-4-yl)-2,5-dihydro-1H-pyrrole-1-carboxamide] | 13 °C | 45800 ± 9700 nM | 141 ± 5 nM | might not penetrate through the biological membranes | inhibitory effect | 103.8 ± 5.9 % of control | 100.1 ± 17.6 % of control | 94.2 ± 17.5 % of control | 76.4 ± 2.9 % of control | inhibitory effect | 103.9 ± 7.0 % of control | 105.2 ± 7.4 % of control | 89.8 ± 4.7 % of control | 69.7 ±3.04 % of control | 91.2 ± 1.7 % of control | 93.0 ± 6.0 % of control | 95.2 ± 6.2 % of control | 97.4 ± 14.8 % of control | effect on CYP2D6 ([7]; any tested concentration): no effect
